Tested on: in vitro RNA transcripts (IVT)
Assay: Functionalisation of in vitro RNA transcripts, Cy3 and RNA assay, DoL (Degree of Labelling)
Type: biochemical, human
Experimental: The in vitro transcripts are generated in the same way as described in example 8. In this example, we have used four concentrations of functionalisation molecule Cy3 IA Me (13) in order to determine the most appropriate concentration for detection of the most sensitive functionalised IVTs.
6 μg of in vitro transcripts are taken up in a total volume of 20 μL of a 10 mM solution of Zn(OAc)2 pH 6.5. The solution is incubated for 15 min at 70° C. in order to partially fragment the RNA until a majority of fragments are obtained which are of a size between 25 and 200 bases. After this incubation, the solution is immediately put into ice.
11 μL of the transcript solution is mixed with 4 μL of a 500 mM solution of NaHCO3 pH 8-8.5, and with 5 μL of a 120, 240, 360 or 480 mM solution of Cy3 IA Me (13) in DMSO, to obtain 30, 60, 90 or 120 mM solutions of functionalisation reagent, respectively. These solutions are incubated at 65° C. for one hour.
The excess of functionalisation reagent as well as that of the different salts are eliminated by isopropanol precipitation then by acetone precipitation. To do this, 6 μL of 3M sodium acetate (i.e. 30% by volume) and 14 μL of isopropanol (i.e. 70% by volume) are added to the functionalisation solution. Vortex stirring is performed and centrifuging is performed for 30 mins at 14,000 rpm (20,800 g) at 4° C. The supernatant is eliminated and then the pellet is rinsed with 50 μL of 70% ethanol. Centrifuging is carried out again for 15 mins at 14,000 rpm (20,800 g) at 4° C., and the supernatant is eliminated.
280 μL of water, 18 μL of 3M LiClO4 and 900 μL of acetone are added to the pellet. Vortex stirring is performed, centrifuging is performed and the supernatant is eliminated. Next, 280 μL of water, 18 μL of 3M LiClO4 and 900 μL of acetone are added to the pellet. Vortex stirring is performed, centrifuging is performed and the supernatant is eliminated. The pellet is rinsed with 50 μL of 70% ethanol and then centrifuging is carried out for 15 mins at 14,000 rpm (20,800 g) at 4° C. The supernatant is eliminated, and the pellet is dried under vacuum with the rotary evaporator before the pellet is taken up in 20 μL of water (i.e. [in vitro transcripts]theoretical=[…]).
In order to determine the quantity of functionalised in vitro transcripts recovered after these different treatments, 1.2 μl of each end solution are assayed by UV spectrophotometry at 260 nm (Nanodrop 100, Thermo Scientific Waltham, USA). An assay is also carried out at 550 nm in order to learn the Cy3 functionalisation rate of the in vitro transcripts (% of Cy3 molecules per 100 nucleosides). This value is also known under the name DoL (Degree of Labelling) and is calculated with the following equation: DoL (in %)=100×(340×[Cy3])/(1000×[RNA]). […]

Work on `CCN1/C(=C\C=C\C2=[N+](CCCCCC(=O)Nc3ccc4c(c3)c(=O)oc(=O)n4C)c3ccc(S(=O)(=O)[O-])cc3C2(C)C)C(C)(C)c2cc(S(=O)(=O)[O-])ccc21.[K+]` [Cy3 IA Me 13, 1-methyl 5-Cy3-isatoic anhydride] yielded a DoL (30 mM compound in the solution) of 0.8%, a DoL (60 mM compound in the solution) of 1.7% and a DoL (90 mM compound in the solution) of 2%. It also gave a DoL (120 mM compound in the solution) of 2.7%.

Source: patent US20130253179A1, “Functionalization Processes and Reactants Used in Such Processes Using an Isatoic Anhydride or a Derivative Thereof, Biological Molecules Thus Treated and Kits” (priority 2010, published 2013)
